From ChEMBL document CHEMBL3865818, “4,5-Diaryl-3H-1,2-dithiole-3-thiones and related compounds as combretastatin A-4/oltipraz hybrids: Synthesis, molecular modelling and evaluation as antiproliferative agents and inhibitors of tubulin” (Eur J Med Chem, 2016)
pIC50: −log10 of the molar value.

Tests used:
[1] = Cell cycle arrest in human KB cells assessed as accumulation at SubG1-phase measured after 48 hrs by propidium iodide staining-based flow cytometry (reference value: 0.61%); assay type: functional
[2] = Cell cycle arrest in human KB cells assessed as accumulation at S-phase at 0.05 uM measured after 36 hrs by propidium iodide staining-based flow cytometry (reference value: 16.51%); assay type: functional
[3] = Cell cycle arrest in human KB cells assessed as accumulation at SubG1-phase at 0.05 uM measured after 36 hrs by propidium iodide staining-based flow cytometry (reference value: 0.63%); assay type: functional
[4] = Cell cycle arrest in human KB cells assessed as accumulation at SubG1-phase at 0.05 uM measured after 24 hrs by propidium iodide staining-based flow cytometry (reference value: 0.76%); assay type: functional
[5] = Cell cycle arrest in human KB cells assessed as accumulation at S-phase at 0.2 uM measured after 24 hrs by propidium iodide staining-based flow cytometry (reference value: 16.96%); assay type: functional
[6] = Cell cycle arrest in human KB cells assessed as accumulation at SubG1-phase at 0.1 uM measured after 24 hrs by propidium iodide staining-based flow cytometry (reference value: 0.76%); assay type: functional
[7] = Cell cycle arrest in human KB cells assessed as accumulation at G2/M-phase at 0.2 uM measured after 12 hrs by propidium iodide staining-based flow cytometry (reference value: 30.19%); assay type: functional
[8] = Cell cycle arrest in human KB cells assessed as accumulation at G0/G1-phase measured after 60 hrs by propidium iodide staining-based flow cytometry (reference value: 63.85%); assay type: functional
[9] = Cell cycle arrest in human KB cells assessed as accumulation at S-phase measured after 36 hrs by propidium iodide staining-based flow cytometry (reference value: 16.51%); assay type: functional
[10] = Cell cycle arrest in human KB cells assessed as accumulation at S-phase measured after 24 hrs by propidium iodide staining-based flow cytometry (reference value: 16.96%); assay type: functional
[11] = Cell cycle arrest in human KB cells assessed as accumulation at G0/G1-phase at 0.1 uM measured after 24 hrs by propidium iodide staining-based flow cytometry (reference value: 48.52%); assay type: functional
[12] = Cell cycle arrest in human KB cells assessed as accumulation at G2/M-phase at 0.05 uM measured after 36 hrs by propidium iodide staining-based flow cytometry (reference value: 27.34%); assay type: functional
[13] = Cell cycle arrest in human KB cells assessed as accumulation at SubG1-phase at 0.2 uM measured after 36 hrs by propidium iodide staining-based flow cytometry (reference value: 0.63%); assay type: functional
[14] = Cell cycle arrest in human KB cells assessed as accumulation at G0/G1-phase at 0.2 uM measured after 60 hrs by propidium iodide staining-based flow cytometry (reference value: 63.85%); assay type: functional
[15] = Antiproliferative activity against human KB cells measured after 72 hrs by MTT assay; assay type: functional, cell-based
[16] = Cell cycle arrest in human KB cells assessed as accumulation at S-phase at 0.2 uM measured after 12 hrs by propidium iodide staining-based flow cytometry (reference value: 15.5%); assay type: functional
[17] = Cell cycle arrest in human KB cells assessed as accumulation at G0/G1-phase at 0.1 uM measured after 48 hrs by propidium iodide staining-based flow cytometry (reference value: 58.26%); assay type: functional
[18] = Cell cycle arrest in human KB cells assessed as accumulation at G0/G1-phase measured after 24 hrs by propidium iodide staining-based flow cytometry (reference value: 48.52%); assay type: functional
[19] = Antiproliferative activity against human SGC7901 cells measured after 72 hrs by MTT assay; assay type: functional, cell-based; conditions: SGC-7901, 72 h
[20] = Cell cycle arrest in human KB cells assessed as accumulation at S-phase at 0.1 uM measured after 12 hrs by propidium iodide staining-based flow cytometry (reference value: 15.5%); assay type: functional
[21] = Cell cycle arrest in human KB cells assessed as accumulation at G2/M-phase at 0.1 uM measured after 60 hrs by propidium iodide staining-based flow cytometry (reference value: 18.9%); assay type: functional
[22] = Cell cycle arrest in human KB cells assessed as accumulation at SubG1-phase at 0.2 uM measured after 48 hrs by propidium iodide staining-based flow cytometry (reference value: 0.61%); assay type: functional
[23] = Cell cycle arrest in human KB cells assessed as accumulation at SubG1-phase measured after 36 hrs by propidium iodide staining-based flow cytometry (reference value: 0.63%); assay type: functional
[24] = Cell cycle arrest in human KB cells assessed as accumulation at G0/G1-phase measured after 12 hrs by propidium iodide staining-based flow cytometry (reference value: 48.26%); assay type: functional
[25] = Cell cycle arrest in human KB cells assessed as accumulation at S-phase at 0.1 uM measured after 48 hrs by propidium iodide staining-based flow cytometry (reference value: 13.32%); assay type: functional
[26] = Cell cycle arrest in human KB cells assessed as accumulation at SubG1-phase at 0.1 uM measured after 12 hrs by propidium iodide staining-based flow cytometry (reference value: 1.23%); assay type: functional
[27] = Cell cycle arrest in human KB cells assessed as accumulation at S-phase measured after 12 hrs by propidium iodide staining-based flow cytometry (reference value: 15.5%); assay type: functional
[28] = Cell cycle arrest in human KB cells assessed as accumulation at G0/G1-phase at 0.1 uM measured after 12 hrs by propidium iodide staining-based flow cytometry (reference value: 48.26%); assay type: functional
[29] = Cell cycle arrest in human KB cells assessed as accumulation at G2/M-phase measured after 24 hrs by propidium iodide staining-based flow cytometry (reference value: 28.84%); assay type: functional
[30] = Cell cycle arrest in human KB cells assessed as accumulation at G2/M-phase at 0.05 uM measured after 24 hrs by propidium iodide staining-based flow cytometry (reference value: 28.84%); assay type: functional
[31] = Cell cycle arrest in human KB cells assessed as accumulation at G0/G1-phase at 0.05 uM measured after 60 hrs by propidium iodide staining-based flow cytometry (reference value: 63.85%); assay type: functional
[32] = Cell cycle arrest in human KB cells assessed as accumulation at S-phase at 0.1 uM measured after 36 hrs by propidium iodide staining-based flow cytometry (reference value: 16.51%); assay type: functional
[33] = Cell cycle arrest in human KB cells assessed as accumulation at S-phase at 0.2 uM measured after 36 hrs by propidium iodide staining-based flow cytometry (reference value: 16.51%); assay type: functional
[34] = Cell cycle arrest in human KB cells assessed as accumulation at G0/G1-phase at 0.05 uM measured after 24 hrs by propidium iodide staining-based flow cytometry (reference value: 48.52%); assay type: functional
[35] = Cell cycle arrest in human KB cells assessed as accumulation at G0/G1-phase at 0.05 uM measured after 48 hrs by propidium iodide staining-based flow cytometry (reference value: 58.26%); assay type: functional
[36] = Cell cycle arrest in human KB cells assessed as accumulation at SubG1-phase at 0.05 uM measured after 12 hrs by propidium iodide staining-based flow cytometry (reference value: 1.23%); assay type: functional
[37] = Cell cycle arrest in human KB cells assessed as accumulation at G2/M-phase measured after 36 hrs by propidium iodide staining-based flow cytometry (reference value: 27.34%); assay type: functional

SMILES: COc1ccc(-c2ssc(=O)c2-c2cc(OC)c(OC)c(OC)c2)cc1N
- Activity [1]: 56.1%
- Activity [2]: 11.7%
- Activity [3]: 10.1%
- Activity [4]: 6.04%
- Activity [5]: 22.2%
- Activity [6]: 16%
- Activity [7]: 70.2%
- Activity [8]: 6.81%
- Activity [9]: 25.4%
- Activity [10]: 26.9%
- Activity [11]: 13.1%
- Activity [12]: 23%
- Activity [13]: 33.2%
- Activity [14]: 10.4%
- pIC50 [15]: 7.22
- Activity [16]: 22.8%
- Activity [17]: 15.5%
- Activity [18]: 6.89%
- pIC50 [19]: 6.76
- Activity [20]: 21.6%
- Activity [21]: 10%
- Activity [22]: 49.9%
- Activity [23]: 25.8%
- Activity [24]: 8.18%
- Activity [25]: 15.3%
- Activity [26]: 2.67%
- Activity [27]: 21.5%
- Activity [28]: 8.66%
- Activity [29]: 52.1%
- Activity [30]: 36.6%
- Activity [31]: 37.8%
- Activity [32]: 14.5%
- Activity [33]: 15.9%
- Activity [34]: 36.7%
- Activity [35]: 50.9%
- Activity [36]: 7.09%
- Activity [37]: 27.9%
